Results on 13 compounds are retold here after PubChem BioAssay (NCI).

Several values for one entry are separate records, joined by “and”; a condition that tells them apart may be missing. Equal values may be shown once.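 Compound exposure: 48 hours, 5 concentrations, 96-well plates. GI50 marks 50% less growth. TGI: concentration producing complete growth inhibition.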

Among the test systems are SK-MEL-2 melanoma; MOLT-4 leukemia; HCT-116 colon; MCF7 breast; SF-268 CNS; NCI-H522 lung; IGROV1 ovarian; OVCAR-5 ovarian; OVCAR-3 ovarian; DU-145 prostate.
What all share (assay): NCI anticancer screen, dose series, 48 h

In the case of `O=S(=O)(Nc1ccc(Br)c(Cl)c1)c1ccc(-c2cnc(C3CC3)o2)cc1`, the GI50 was 2.45 µM in the assay on SK-MEL-2 melanoma; 0.688 µM in the assay on MOLT-4 leukemia; 0.432 µM in the assay with HCT-116 colon; 0.339 µM in the assay on MCF7 breast; 1.56 µM in the assay with SF-268 CNS; 0.262 µM in the assay with NCI-H522 lung. Further, the GI50 in the assay with IGROV1 ovarian is 0.577 µM; with OVCAR-5 ovarian, 1.97 µM; in the assay with OVCAR-3 ovarian it was 0.37 µM; in the assay on DU-145 prostate, 1.52 µM. The TGI with SK-MEL-2 melanoma was 24 µM; with MOLT-4 leukemia, > 50.4 µM; with HCT-116 colon it was 13.6 µM; in the assay on MCF7 breast it was 16 µM; with SF-268 CNS, 23.5 µM; with NCI-H522 lung it was 10.7 µM. The TGI is 14.8 µM with IGROV1 ovarian, 14.1 µM with OVCAR-5 ovarian, 7.32 µM with OVCAR-3 ovarian and 17.6 µM in the assay on DU-145 prostate.

For `CCCc1cc(=O)[nH]c(-n2nc(C)cc2C)n1`, the GI50 in the assay with SK-MEL-2 melanoma is 13 µM; with MOLT-4 leukemia, 3.44 µM; in the assay on HCT-116 colon it was 3.3 µM; with MCF7 breast, 4.31 µM; in the assay on SF-268 CNS it was 3.19 µM; with NCI-H522 lung it was 4.98 µM. For the same compound, the GI50 with IGROV1 ovarian was 2.31 µM; in the assay with OVCAR-5 ovarian, 28 µM; in the assay with OVCAR-3 ovarian, 7.43 µM; with DU-145 prostate it was 7.66 µM. In addition, the TGI in the assay with SK-MEL-2 melanoma is 63 µM; in the assay with MOLT-4 leukemia, > 100 µM; with HCT-116 colon, 67.3 µM; with MCF7 breast, > 100 µM; in the assay on SF-268 CNS, > 100 µM; in the assay on NCI-H522 lung, 30.7 µM. Moreover, the TGI in the assay on IGROV1 ovarian, in the assay with OVCAR-5 ovarian, in the assay with OVCAR-3 ovarian and in the assay with DU-145 prostate was > 100 µM each time.

Consider `O=[N+]([O-])c1ccc2c(c1)Cc1cc(N=Cc3ccc4c(c3)OCO4)ccc1-2`, for which the TGI in the assay with SK-MEL-2 melanoma, in the assay on MOLT-4 leukemia, in the assay with HCT-116 colon, with MCF7 breast, in the assay on SF-268 CNS and in the assay on NCI-H522 lung was > 100 µM in each case. Also, the TGI with IGROV1 ovarian, in the assay on OVCAR-5 ovarian, in the assay with OVCAR-3 ovarian and with DU-145 prostate was > 100 µM throughout.

For the compound `CCOC(=O)c1cc2c(n1Cc1cccc(OC)c1)-c1oncc1CCC2`, the GI50 in the assay with SK-MEL-2 melanoma is 0.535 µM; in the assay on MOLT-4 leukemia, 3.18 µM; with HCT-116 colon, 0.534 µM; in the assay on MCF7 breast it was 0.385 µM; in the assay on SF-268 CNS, 9.03 µM; in the assay on NCI-H522 lung, 0.222 µM. In addition, the GI50 in the assay on IGROV1 ovarian was 0.968 µM; with OVCAR-5 ovarian, 6.31 µM; in the assay with OVCAR-3 ovarian, 0.372 µM; with DU-145 prostate, 2.46 µM. In addition, the TGI in the assay on SK-MEL-2 melanoma was 14.9 µM; in the assay on MOLT-4 leukemia, > 100 µM; with HCT-116 colon it was > 100 µM; in the assay with MCF7 breast, > 100 µM; in the assay with SF-268 CNS, > 100 µM; in the assay with NCI-H522 lung, 0.704 µM. Moreover, the TGI in the assay on IGROV1 ovarian is > 100 µM; with OVCAR-5 ovarian it was > 100 µM; in the assay with OVCAR-3 ovarian, 4.53 µM; in the assay on DU-145 prostate, > 32.5 µM.

For `Cc1cc(Cl)ccc1Nc1nc(C(F)(F)F)ccc1C(=O)N/N=C/c1ccc(Cl)cc1`, the GI50 in the assay with SK-MEL-2 melanoma was 2.18 µM; in the assay with MOLT-4 leukemia, 0.75 µM; in the assay on HCT-116 colon, 2.46 µM; in the assay on MCF7 breast, 1.55 µM; with SF-268 CNS, 1.35 µM; with NCI-H522 lung, 2.23 µM. The GI50 in the assay on IGROV1 ovarian is 3.31 µM; with OVCAR-5 ovarian it was 2.07 µM; with OVCAR-3 ovarian it was 1.32 µM; in the assay with DU-145 prostate, 2.56 µM. Besides, the TGI in the assay on SK-MEL-2 melanoma came out at 9.2 µM; with MOLT-4 leukemia, 4.35 µM; with HCT-116 colon, 9.87 µM; in the assay on MCF7 breast it was 4.7 µM; with SF-268 CNS it was 10.1 µM; in the assay with NCI-H522 lung it was 7.96 µM. The TGI in the assay on IGROV1 ovarian worked out at 13.6 µM; with OVCAR-5 ovarian, 6.64 µM; in the assay with OVCAR-3 ovarian it was 5.28 µM; with DU-145 prostate, 13.1 µM.

Regarding `COc1ccc2c(c1)nnn1c3ncccc3c(N=O)c21`, the GI50 in the assay with SK-MEL-2 melanoma was 2.18 µM and 4.29 µM; in the assay with MOLT-4 leukemia, 0.0094 µM and 0.0123 µM; in the assay on HCT-116 colon, 0.06 µM; with MCF7 breast, 0.132 µM and 0.336 µM; in the assay with SF-268 CNS, 0.465 µM and 1.73 µM; in the assay with NCI-H522 lung, 1.25 µM. The GI50 in the assay on IGROV1 ovarian was 0.114 µM and 1.09 µM; with OVCAR-5 ovarian, 8.02 µM and 4.57 µM; in the assay on OVCAR-3 ovarian, 1.11 µM and 2.41 µM; in the assay on DU-145 prostate, 1.82 µM and 2.38 µM. Moreover, the TGI in the assay with SK-MEL-2 melanoma was 10.3 µM and > 100 µM; with HCT-116 colon it was 0.91 µM; in the assay on MCF7 breast, 0.814 µM and 2.21 µM; with SF-268 CNS, 3.56 µM and 8.25 µM; with NCI-H522 lung, 6.49 µM; in the assay with OVCAR-5 ovarian, 23.2 µM and > 100 µM. The TGI with OVCAR-3 ovarian was 5.18 µM and 7.68 µM; in the assay with DU-145 prostate, 13 µM and 8.09 µM.

With `O=C(O)C1OC1(c1cccc(Cl)c1)c1ccccc1Cl` (stereo not drawn), the TGI in the assay with SK-MEL-2 melanoma was 31.2 µM; in the assay with MOLT-4 leukemia, 82.4 µM; in the assay on HCT-116 colon, 43.7 µM; in the assay with MCF7 breast it was > 100 µM; in the assay with SF-268 CNS it was 47.8 µM; in the assay on NCI-H522 lung, 65 µM. For the same compound, the TGI was > 100 µM in the assay with IGROV1 ovarian, > 100 µM in the assay on OVCAR-5 ovarian, 46.1 µM with OVCAR-3 ovarian and 77.5 µM with DU-145 prostate.

As to `COc1cc2oc3cc(=O)cc4oc(-c5ccccc5)cc(c2c2c1CCC(c1ccccc1)O2)c43` (stereo not drawn), the TGI was > 100 µM with SK-MEL-2 melanoma; > 100 µM with MOLT-4 leukemia; > 100 µM with HCT-116 colon; 59.2 µM in the assay on MCF7 breast; > 100 µM with SF-268 CNS; > 100 µM in the assay on NCI-H522 lung. In addition, the TGI in the assay with IGROV1 ovarian is > 100 µM; with OVCAR-5 ovarian, > 100 µM; with OVCAR-3 ovarian it was 77.6 µM; in the assay with DU-145 prostate, > 100 µM.

Take `CCN(Cc1ccc(F)cc1)c1ccc(CO)c(F)c1`: the GI50 in the assay with SK-MEL-2 melanoma was 10.5 µM; with MOLT-4 leukemia, 21.2 µM; in the assay with HCT-116 colon it was 2.38 µM; in the assay with MCF7 breast it was 6.03 µM; in the assay on SF-268 CNS, 24.8 µM; in the assay on NCI-H522 lung it was 14.1 µM. For the same compound, the GI50 in the assay with IGROV1 ovarian was 1.26 µM; in the assay on OVCAR-5 ovarian it was 1.26 µM; with OVCAR-3 ovarian it was 5.38 µM; in the assay on DU-145 prostate it was 23.5 µM. The TGI with SK-MEL-2 melanoma is 26.8 µM; with MOLT-4 leukemia, 57.6 µM; in the assay on HCT-116 colon, 13.5 µM; in the assay on MCF7 breast, 60.7 µM; in the assay on SF-268 CNS, > 92.3 µM; in the assay on NCI-H522 lung, 35.8 µM. The TGI in the assay on IGROV1 ovarian was 5.03 µM; with OVCAR-5 ovarian, 4.13 µM; with OVCAR-3 ovarian it was 18 µM; with DU-145 prostate it was > 100 µM.

As for `COC1=CC(c2ccc[nH]2)=N/C1=C\c1[nH]c(C)c(C(=O)CCCCC(=O)NC(C)(C)C)c1C`, the GI50 with SK-MEL-2 melanoma was 17.7 µM; with MOLT-4 leukemia it was 0.854 µM; with HCT-116 colon it was 1.2 µM; with MCF7 breast, 1.5 µM; in the assay on SF-268 CNS it was 1.6 µM; with NCI-H522 lung, 2.09 µM. Also, the GI50 in the assay with IGROV1 ovarian is 2.1 µM; in the assay on OVCAR-5 ovarian it was 1.89 µM; in the assay with OVCAR-3 ovarian, 1.22 µM; in the assay with DU-145 prostate, 1.69 µM. In addition, the TGI amounted to 42.5 µM in the assay on SK-MEL-2 melanoma; 4.29 µM in the assay on MOLT-4 leukemia; 2.43 µM with HCT-116 colon; 2.92 µM in the assay with MCF7 breast; 4.32 µM with SF-268 CNS; 6.73 µM in the assay on NCI-H522 lung. Moreover, the TGI in the assay with IGROV1 ovarian turned out to be 4.59 µM; in the assay with OVCAR-5 ovarian it was 8.73 µM; in the assay on OVCAR-3 ovarian, 2.73 µM; in the assay on DU-145 prostate it was 3.79 µM.

As to `Nc1nc(N)c2nc(CNc3ccc(C(=O)NC(CC(=O)O)C(=O)O)cc3)cnc2n1` (stereo not drawn), the GI50 in the assay with SK-MEL-2 melanoma is 0.412 µM; in the assay with MOLT-4 leukemia, 0.903 µM; with HCT-116 colon it was 0.0773 µM; in the assay on MCF7 breast it was 0.631 µM; with SF-268 CNS it was 0.528 µM; in the assay on NCI-H522 lung it was 3.97 µM. For the same compound, the GI50 in the assay with IGROV1 ovarian is 0.631 µM; in the assay on OVCAR-5 ovarian, 16.3 µM; in the assay with OVCAR-3 ovarian, 0.694 µM; in the assay with DU-145 prostate, 0.682 µM. Also, the TGI in the assay on SK-MEL-2 melanoma, in the assay on MOLT-4 leukemia, in the assay with HCT-116 colon, in the assay on MCF7 breast, in the assay on SF-268 CNS and with NCI-H522 lung was > 100 µM each time. Besides, the TGI in the assay on IGROV1 ovarian, in the assay with OVCAR-5 ovarian, with OVCAR-3 ovarian and in the assay with DU-145 prostate was > 100 µM throughout.

Consider `COc1ccc(C2CC(C)(O)Oc3cc4c(cc32)OCO4)cc1` (stereo not drawn), for which the TGI with SK-MEL-2 melanoma is 75.2 µM; in the assay with MOLT-4 leukemia, 88.6 µM; in the assay with HCT-116 colon, > 100 µM; in the assay with MCF7 breast, > 100 µM; with SF-268 CNS it was > 100 µM; in the assay on NCI-H522 lung, 44.6 µM. For the same compound, the TGI with IGROV1 ovarian, with OVCAR-5 ovarian, in the assay with OVCAR-3 ovarian and with DU-145 prostate was > 100 µM throughout.

As for `CCC1CN2C(=N1)c1ccccc1-c1cc(Cl)ccc12` (stereo not drawn), the GI50 with SK-MEL-2 melanoma is 2.75 µM; in the assay with MOLT-4 leukemia it was 2.51 µM; in the assay with HCT-116 colon, 2.53 µM; with MCF7 breast, 2.45 µM; in the assay with SF-268 CNS it was 2.96 µM; in the assay on NCI-H522 lung it was 2.58 µM. The GI50 with IGROV1 ovarian was 2.29 µM; with OVCAR-5 ovarian, 4.48 µM; with OVCAR-3 ovarian, 3.48 µM; in the assay with DU-145 prostate, 2.31 µM. Besides, the TGI came to 7.77 µM in the assay on SK-MEL-2 melanoma; 7.16 µM in the assay with MOLT-4 leukemia; 10.6 µM in the assay with HCT-116 colon; 14.1 µM in the assay with MCF7 breast; 11.6 µM in the assay with SF-268 CNS; 8.19 µM in the assay on NCI-H522 lung. For the same compound, the TGI in the assay on IGROV1 ovarian is 15.1 µM; with OVCAR-5 ovarian, 29.6 µM; with OVCAR-3 ovarian, 9.9 µM; with DU-145 prostate, 6.26 µM.
